In PMC6340938, “Three Novel ACE Inhibitory Peptides Isolated From Ginkgo biloba Seeds: Purification, Inhibitory Kinetic and Mechanism” (Frontiers in Pharmacology, 2019):
Where two headings read alike, the source gives them in different places. Each block holds one compound with its values, some of them ahead of it. Where no end group is shown, it is not given here.

Key:
[1] = currently used blood pressure lowering drugs; ref Yu et al., 2018; cited from earlier work
Excerpt: As per the World Health Organization estimate, CVD accounts for the mortality of more than 17.5 million people every year. Among the important characteristics of CVD, hypertension is an essential target for the prevention and treatment of CVD ([Celermajer et al., 2012]). […] Lately, signific ...

ACE = conditions: 2017, cited from earlier work; for ACE inhibitory activity (in words): peptides containing hydrophobic amino acid (Leu), ref Lee and Hur; for Inhibition mode: ref Lin et al.
Excerpt: According to report by [Hernández-Ledesma et al. (2011)], most of the ACE inhibiting peptides were short sequences consisting of 2–12 amino acids. In addition, the activity of the ACE-inhibiting peptide was strongly related to the pres ... || The mode of inhibition of ACE-inhibiting peptides was observed generally non-competitive, competitive, and mixed.

[2] = target: T1, angiotensin converting enzyme (ACE) (Homo sapiens, UniProt P12821); experiment: ACE inhibitory activity, HHL substrate, RP-HPLC of hippuric acid; format: biochemical; conditions: synthetic peptides, purity >95%; HHL 5 mM, borate pH 8.3, 0.3 M NaCl, 37°C, 45 min, ACE 50 mU/mL; RP-HPLC 228 nm; mean, n = 3
T1 sequence (P12821 30-1306, species assumed): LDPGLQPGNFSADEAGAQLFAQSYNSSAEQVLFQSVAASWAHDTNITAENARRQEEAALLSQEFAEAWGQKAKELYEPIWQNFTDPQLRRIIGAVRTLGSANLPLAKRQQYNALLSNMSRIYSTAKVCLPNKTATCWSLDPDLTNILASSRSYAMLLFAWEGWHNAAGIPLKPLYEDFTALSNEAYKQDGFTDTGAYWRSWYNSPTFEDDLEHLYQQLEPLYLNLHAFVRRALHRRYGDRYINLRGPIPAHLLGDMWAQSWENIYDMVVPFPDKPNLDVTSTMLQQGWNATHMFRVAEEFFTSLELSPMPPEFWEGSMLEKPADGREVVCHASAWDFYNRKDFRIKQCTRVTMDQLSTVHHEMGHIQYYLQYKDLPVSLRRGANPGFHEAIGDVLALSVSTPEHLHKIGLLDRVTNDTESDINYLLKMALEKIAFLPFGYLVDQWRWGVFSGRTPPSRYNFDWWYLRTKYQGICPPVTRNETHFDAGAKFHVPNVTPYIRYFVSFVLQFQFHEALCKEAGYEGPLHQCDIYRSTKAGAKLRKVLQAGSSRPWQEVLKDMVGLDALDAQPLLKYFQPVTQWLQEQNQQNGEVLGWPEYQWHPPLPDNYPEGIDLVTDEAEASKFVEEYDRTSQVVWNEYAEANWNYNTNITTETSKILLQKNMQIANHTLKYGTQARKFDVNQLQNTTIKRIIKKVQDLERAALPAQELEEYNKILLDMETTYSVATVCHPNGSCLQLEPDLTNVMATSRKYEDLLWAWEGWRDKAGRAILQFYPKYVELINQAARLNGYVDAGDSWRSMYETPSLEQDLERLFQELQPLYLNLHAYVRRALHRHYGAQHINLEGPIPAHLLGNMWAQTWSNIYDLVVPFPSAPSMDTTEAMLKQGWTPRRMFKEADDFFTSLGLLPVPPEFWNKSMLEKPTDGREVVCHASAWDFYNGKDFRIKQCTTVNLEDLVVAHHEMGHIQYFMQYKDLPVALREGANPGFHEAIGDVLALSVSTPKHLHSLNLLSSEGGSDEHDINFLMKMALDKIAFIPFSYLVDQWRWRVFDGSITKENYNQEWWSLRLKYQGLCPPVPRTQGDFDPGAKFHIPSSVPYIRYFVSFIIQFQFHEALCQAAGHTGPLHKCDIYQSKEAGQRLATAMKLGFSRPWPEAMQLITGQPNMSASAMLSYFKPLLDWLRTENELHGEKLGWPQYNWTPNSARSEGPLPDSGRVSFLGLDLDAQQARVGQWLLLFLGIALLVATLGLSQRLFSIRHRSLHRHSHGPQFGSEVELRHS
Experimental: This test was performed as per the descriptions are given by the previous report by [O’Loughlin et al. (2014)] with some modifications. Briefly, the substrate hippuryl-histidyl-leucine (HHL, 5 mM) and samples were mixed in 0.1 M Na2[B4O5(OH)4] (pH 8.3) with 0.3 M sodium chloride. Then after, 50 μL of sample and 150 μL of the substrate were added to a centrifuge tube, mixed and allowed to stand in water at 37°C for 5 min. Subsequently, the ACE solution (50 mU/mL) was added and incubated at 37°C for 45 min. The reaction was terminated by adding 250 μL of 1M HCl and the solution was filtered through […] nylon syringe filter before being analyzed by RP-HPLC (Waters, Milford, MA, United States) on an Inertsil ODS-3 (250 × 4.6 mm, 5 μm particle size). The mobile phase comprised of distilled water: acetonitrile = 75:25 (V/V, with 0.1% TFA) with a flow rate of 0.5 mL/min and detection at 228 nm. Captopril was used as a control and the inhibitory activity (%) was determined as below:
ACE inhibitory activity (%)=[(A−B)/A]×100
where A was the peak area of hippuric acid with the sample, B was without the sample.

[3] = target: T1, angiotensin converting enzyme (ACE); experiment: Kinetics of ACE inhibition, Lineweaver-Burk plot; format: biochemical; conditions: HHL 0.5, 1, 2, 5 mM, peptide 0, 15, 30 μM
Experimental: The kinetic inhibition model of G. biloba peptide was tested using the method of [Lin et al. (2017)]. Briefly, different concentrations of substrate HHL (0.5, 1, 2, and 5 mM) were allowed to react with ACE. The Lineweaver-Burk plot was based on the reciprocal of the reaction rate (1/v) and the substrate concentration (1/[s]). The intercepts on the X- and Y-axes represented the reciprocals of Km and Vmax, respectively.
FIGURE 5 The Lineweaver-Burk plot of the inhibitory effects on ACE activities of peptides. (A) TNLDWY, (B) RADFY, and (C) RVFDGAV. The ACE activities were determined in the absence and presence of different concentrations of the peptides (0, 15, and 30 μM).

[4] = Qula casein and hazelnut peptides, Liu et al., 2018

Compound: C[C@H](CS)C(=O)N1CCC[C@H]1C(=O)O [captopril]
Adverse reactions [1]: cough, rash, and headache

Compound: CCOC(=O)[C@H](CCc1ccccc1)N[C@@H](C)C(=O)N1CCC[C@H]1C(=O)O [enalapril]
Adverse reactions [1]: cough, rash, and headache

Compound: KPLL
ACE inhibitory activity (in words) (ACE): appreciable ACE inhibitory activity

Compound: KYIPIQ [peptide from Qula casein]
Inhibition mode (ACE; peptides from Qula casein): competitive inhibition mode

Compound: LPLPLL [peptide from Qula casein]
Inhibition mode (ACE; peptides from Qula casein): competitive inhibition mode

Compound: PFPGPIPN
Inhibition mode (ACE; [4]): non-competitive

IC50 [2]: 1350 µM
Compound: RADFY [RADFY, Arg-Ala-Asp-Phe-Tyr]
Effect on Km [3]: Km increased with the increasing peptide concentration

IC50 [2]: 1010 µM
Compound: RVFDGAV [RVFDGAV, Arg-Val-Phe-Asp-Gly-Ala-Val]
Effect on Km [3]: Km increased with the increasing peptide concentration

IC50 [2]: 1930 µM
Compound: TNLDWY [TNLDWY, Thr-Asn-Leu-Asp-Trp-Tyr]
Effect on Km [3]: Km did not change significantly with peptide concentration

Compound: VLAQYK
ACE inhibitory activity (in words) (ACE): appreciable ACE inhibitory activity

Compound: YLVR [hazelnut peptide]
Inhibition mode (ACE; [4]): non-competitive
